Laboratory results published in patent US11180510B2, “Xanthine derivatives and uses thereof as inhibitors of bromodomains of BET proteins” (Centre national de la recherche scientifique, priority 2017, dated 2021).
Like-named read-outs stand apart in the source and are kept apart here.

Columns and labels:
[1] = biological target: T1, Brd2(BD1) (Homo sapiens, UniProt P25440); test: HTRF BET selectivity profile, Brd2(BD1); assay type: binding; details: for IC50: read-out: Brd2(BD1) IC50; for Ratio 2-1 vs 2-2: selectivity Brd2(BD1) vs Brd2(BD2), HTRF IC50
T1 construct: GST tagged bromodomain proteins were purchased from BPS Bioscience; purchased BPS Bioscience
T1 sequence (P25440 74-180 limits assumed): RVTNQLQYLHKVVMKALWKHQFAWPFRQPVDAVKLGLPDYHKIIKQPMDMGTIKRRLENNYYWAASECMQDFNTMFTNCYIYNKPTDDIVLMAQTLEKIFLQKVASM
Description: (§1) HTRF assays were performed in white 384 Well Small Volume™ HiBase Polystyrene Microplates (Greiner) with a total working volume of 20 μL. Compounds were dispensed, with 100 nL per well (0.5% final DMSO), from a concentration stock of 10 mM in 100% DMSO and with serial DMSO dilutions, using an Echo® 550 robot from the Access Labcyte platform (Labcyte) and based on the transfer of liquid by acoustic wave. Then, 19.5 μL of buffer is added, using a Multidrop Combi (Thermo Fisher Scientific). […] All HTRF reagents (donor and acceptor) were purchased from CisBio Bioassays and reconstituted according to the supplier protocols. The peptide was purchased from Genic Bio Synthetic. The BRD4(1) protein was produced and purified in the laboratory.
(§2) Percentage of inhibition was calculated using the following equation: % inhibition=[(compound signal)−(min signal)]/[(max signal)−(min signal)]*100, where ‘max signal’ is the signal ratio with the compound vehicle alone (DMSO) and ‘min signal’ the signal ratio without peptide.
(§3) Selectivity profiles of bromodomain inhibitors were performed as described in HTRF screen section. […] HTRF detection reagents (EPIgeneous™ Binding Domain kits) were purchased from Cisbio Bioassays and used according to supplier's protocol. GST tagged bromodomain proteins were purchased from BPS Bioscience and histone peptide from Genic Bio Synthetic.

[2] = biological target: T2, BRD4(BD1) (Homo sapiens, UniProt O60885); test: HTRF assay, BRD4(BD1)/histone peptide interaction; assay type: binding; parameters: made in house; details: for IC50: HTRF; for Ratio 4-1 vs 4-2: selectivity Brd4(BD1) vs Brd4(BD2), HTRF IC50
Description: as §1, §2, §3

[3] = system: Jurkat cells; test: Cell Titer-Glo cell viability assay, Jurkat; assay type: cell-based; details: Homo sapiens, 72 h, mean of three experiments, NA = IC50 > maximal concentration used
Description: (§4) The human leukemia cell line Jurkat (ATCC® TIB-152) and Molm14 was maintained in RPMI-1640 medium or MEMα, respectively and supplemented both with 10% FBS at 37° C. and 5% CO2.
(§5) In antiproliferative assays, compounds were assayed for their growth inhibiting activity towards the described cancer cell lines using the Cell Titer-Glo Luminescent Cell Viability Assay as described by the manufacturer (Promega Corporation). Briefly, 10.000 cells were plated onto 96 well-plates (white with clear bottom (3610, Corning Costar)) in 90 μL media per well immediately before assay. 10 μL of compounds were added at different concentrations (ranging from 50 μM to 6 nM) to each well and cell cultures were incubated 37° C. during 72 h. Vehicle (DMSO) was used as negative control, JQ1 (a pan-BET inhibitor) was used as positive control and all compounds were tested in constant percentage of DMSO (1%). After addition of 50 μL Cell Titer-GLO, shaking 2 minutes and incubating at room temperature 10 minutes, the Luminescence was measured using a Centro luminometer LB960 (Berthold). Dose-response curves were generated and effective dose 50 values (EC50) were calculated using non-linear regression analysis (Graph Pad Prism).

[4] = biological target: T3, Brd2(BD2) (Homo sapiens, UniProt P25440); test: HTRF BET selectivity profile, Brd2(BD2); assay type: binding; details: read-out: Brd2(BD2) IC50
T3 construct: GST tagged bromodomain proteins were purchased from BPS Bioscience; purchased BPS Bioscience
T3 sequence (P25440 344-453 limits assumed): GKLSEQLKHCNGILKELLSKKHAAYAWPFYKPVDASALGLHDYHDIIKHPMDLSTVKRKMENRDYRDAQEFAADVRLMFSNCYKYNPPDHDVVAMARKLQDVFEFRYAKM
Description: as §1, §2, §3

[5] = biological target: Brd3(BD1) (Homo sapiens, UniProt Q15059); test: HTRF BET selectivity profile, Brd3(BD1); assay type: binding; parameters: GST tagged bromodomain proteins were purchased from BPS Bioscience; purchased BPS Bioscience; details: for Ratio 3-1 vs 3-2: selectivity Brd3(BD1) vs Brd3(BD2), HTRF IC50
Brd3(BD1), sequence (Q15059 34-140 limits assumed): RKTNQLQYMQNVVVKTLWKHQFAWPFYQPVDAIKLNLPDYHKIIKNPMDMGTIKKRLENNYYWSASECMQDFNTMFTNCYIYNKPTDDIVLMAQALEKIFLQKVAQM
Description: as §1, §2, §3

[6] = biological target: T4, Brdt(BD1) (Homo sapiens, UniProt Q58F21); test: HTRF BET selectivity profile, Brdt(BD1); assay type: binding
T4 construct: GST tagged bromodomain proteins were purchased from BPS Bioscience; purchased BPS Bioscience
Description: (§6) HTRF assays were performed in white 384 Well Small Volume™ HiBase Polystyrene Microplates (Greiner) with a total working volume of 20 μL. Compounds were dispensed, with 100 nL per well (0.5% final DMSO), from a concentration stock of 10 mM in 100% DMSO and with serial DMSO dilutions, using an Echo® 550 robot from the Access Labcyte platform (Labcyte) and based on the transfer of liquid by acoustic wave. Then, 19.5 μL of buffer is added, using a Multidrop Combi (Thermo Fisher Scientific). Finally, for each assay, 200 nL of master mix (protein+donor+acceptor) and 200 nL of peptide Is added in the assay wells according to the final concentration and buffer described in Table 3, using the Echo® 550 robot (Labcyte). The IC50 measurements were performed in triplicates (Table 2 and 3). All HTRF reagents (donor and acceptor) were purchased from CisBio Bioassays and reconstituted according to the supplier protocols. The peptide was purchased from Genic Bio Synthetic. The BRD4(1) protein was produced and purified in the laboratory. HTRF signals were measured, after a final incubation (3 h or 6 h or overnight at room temperature or 4° C., according to the bromodomain), using a PHERAstar FS (BMG Labtech) with an excitation filter at 337 nm and fluorescence wavelength measurement at 620 and 665 nm, an integration delay of 60 μs and an integration time of 500 μs. Results were analyzed with a two-wavelengths signal ratio: [intensity (665 nm)/intensity (620 nm)]*104.
as §2, §3

[7] = biological target: T5, Brd3(BD2) (Homo sapiens, UniProt Q15059); test: HTRF BET selectivity profile, Brd3(BD2); assay type: binding
T5 construct: GST tagged bromodomain proteins were purchased from BPS Bioscience; purchased BPS Bioscience
T5 sequence (Q15059 306-415 limits assumed): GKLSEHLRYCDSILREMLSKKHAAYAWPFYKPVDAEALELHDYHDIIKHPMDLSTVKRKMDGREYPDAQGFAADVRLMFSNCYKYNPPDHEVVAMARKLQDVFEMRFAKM
Description: as §6, §2, §3

[8] = biological target: T6, Brd4(BD2) (Homo sapiens, UniProt O60885); test: HTRF BET selectivity profile, Brd4(BD2); assay type: binding
T6 construct: GST tagged bromodomain proteins were purchased from BPS Bioscience; purchased BPS Bioscience
Description: as §6, §2, §3

[9] = system: Molm14 cells; test: Cell Titer-Glo cell viability assay, Molm14; assay type: cell-based; details: Homo sapiens, MOLM-14, 72 h, mean of three experiments, NA = IC50 > maximal concentration used
Description: as §4, §5

[10] = biological target: T2, BRD4(BD1); test: Isothermal Titration Calorimetry; assay type: binding; details: ITC; read-out: Binding affinity (Kd) to BRD4(1) by Isothermal Titration Calorimetry
Description: FIG. 1. Isothermal Titration Calorimetry (ITC) of 43c. Thermogram (top) and non-linear least squares fit model of the integrated data (bottom) at 15° C. of Brd4 (BD1) […] as a function of the molar ratio of ligand to the protein.
ITC was used to evaluate the thermodynamics parameters of the binding between BRD4 (BD1) and the selected compounds. Titrations were carried out on a MicroCal ITC200 microcalorimeter (GE Healthcare, Piscataway, N.J.). Each experiment was designed using a titrant concentration (protein in the syringe generally between 100 and 400 μM) set 10 to 15 times the analyte concentration (compound in the cell generally between 10 and 40 μM) and using 13 injections at 25° C. A first small injection (generally 0.2 μL) was included in the titration protocol in order to remove air bubbles trapped in the syringe prior titration. Raw data were scaled after setting the zero to the titration saturation heat value. Integrated raw ITC data were fitted to a one site non-linear least squares fit model using the MicroCal Origin plugin as implemented in Origin 7 (Origin Lab). Finally, ΔG and TΔS values were calculated from the fitted ΔH and KA values using the equations ΔG=−R.T.inKA and ΔG=ΔH−TΔS.

[11] = mean of three experiments, NA = IC50 > 50 μM, read-out: Brd4(8D1) IC50
[12] = triplicates, NA = IC50 > maximal concentration of compound used

IC50 [1] [µM] | Ratio 2-1 vs 2-2 [1] | IC50 [2, 11] [µM] | IC50 [2, 12] [µM] | Ratio 4-1 vs 4-2 [2] | IC50 [3] [µM] | IC50 [4] [µM] | IC50 [5] [µM] | Ratio 3-1 vs 3-2 [5] | IC50 [6] [µM] | IC50 [7] [µM] | IC50 [8] [µM] | IC50 [9] [µM] | Kd [10] [µM] | Structure (SMILES)
3.33 | 2 | 0.846 | 0.846 | 7 | 14.2 | 6.05 | 1 | 12 | 6.26 | 12 | 5.85 | 10.2 | – | CCn1cnc2c1c(=O)[nH]c(=O)n2Cc1ccc(CNS(=O)(=O)c2ccn(-c3ccccc3)n2)cc1 [Compound 24b]
2.1 | 2 | 0.284 | 0.284 | 14 | 13.5 | 3.2 | 0.507 | 6 | 3.47 | 3.17 | 4.05 | 9.9 | – | CCn1cnc2c1c(=O)[nH]c(=O)n2Cc1ccc(CNS(=O)(=O)c2ccc(-c3cc(C)n[nH]3)s2)cc1 [Compound 25a]
0.352 | 6 | 0.123 | 0.123 | 34 | – | 1.96 | 0.23 | 14 | 0.397 | 3.32 | 4.24 | 23.7 | 0.17 | CCn1cnc2c1c(=O)[nH]c(=O)n2Cc1ccc(CNS(=O)(=O)c2ccc(C(=O)N3CCOCC3)cc2)cc1 [Compound 44b]
1.38 | 8 | 0.779 | 0.779 | 16 | 5.2 | 10.5 | 1.54 | 8 | 7.44 | 12.4 | 12.8 | 11.1 | – | CCn1cnc2c1c(=O)[nH]c(=O)n2Cc1ccc(CNS(=O)(=O)c2cc3ccccc3s2)cc1 [Compound 25b]
– | – | – | 13 | – | 23.3 | – | – | – | – | – | – | 30.2 | – | CCn1cnc2c1c(=O)[nH]c(=O)n2Cc1cc(OC)c(CNS(=O)(=O)c2ccc3c(c2)CCCC(=O)N3)cc1OC [Compound 32a]
4.67 | 0.7 | 1.08 | 1.1 | 9 | 32.5 | 3.36 | 4.43 | 1 | 18.9 | 4.16 | 9.15 | – | 2.1 | CCCCc1c(C)nc2nc(SCc3nc4c(c(=O)[nH]c(=O)n4Cc4ccc(CNS(=O)(=O)c5ccc6c(c5)CCCC(=O)N6)cc4)n3CC)nn2c1C [Compound 32c, N-(4-((8-(((6-butyl-5,7-dimethyl-[1,2,4]triazolo[1,5-a]pyrimidin-2-yl)thio)methyl)-7-ethyl-2,6-dioxo-1,2,6,7-tetrahydro-3H-purin-3-yl)methyl)benzyl)-2-oxo-2,3,4,5-tetrahydro-1H-benzo[b]azepine-7-sulfonamide]
– | – | – | 0.522 | – | – | – | – | – | – | – | – | 9.3 | – | CCn1cnc2c1c(=O)[nH]c(=O)n2Cc1ccc(CNS(=O)(=O)c2ccc(Oc3ccc(C(F)(F)F)cc3)cc2)cc1 [Compound 44c]
– | – | – | 0.75 | – | – | – | – | – | – | – | – | 12.2 | – | CCn1cnc2c1c(=O)[nH]c(=O)n2Cc1ccc(CNS(=O)(=O)c2ccc(Oc3cncc(C)n3)cc2)cc1 [Compound 42c]

Structure (SMILES) | IC50 [1] [µM] | Ratio 2-1 vs 2-2 [1] | IC50 [2, 11] [µM] | IC50 [2, 12] [µM] | Ratio 4-1 vs 4-2 [2] | IC50 [3] [µM] | IC50 [4] [µM] | IC50 [5] [µM] | Ratio 3-1 vs 3-2 [5] | IC50 [6] [µM] | IC50 [7] [µM] | IC50 [8] [µM] | IC50 [9] [µM] | Kd [10] [µM]
O=C1CCCc2cc(S(=O)(=O)NCC3CCC(C(=O)NCCc4cccs4)CC3)ccc2N1 (single isomer, unassigned) [Compound 5b, 4-((2-oxo-2,3,4,5-tetrahydro-1H-benzo[b]azepine-7-sulfonamido)methyl)-N-(2-(thiophen-2-yl)ethyl)cyclohexanecarboxamide] | 6.35 | >8 | 3.83 | 3.8 | >13 | 9.3 | – | 2.38 | >21 | 14.6 | – | – | – | 2.2
